Laboratory results taken from ChEMBL document CHEMBL3046584, “Synthesis, biological activity and docking study of some new isatin Schiff base derivatives” (2012).

Columns and labels:
Assay type in all cases: functional
Raji = experiment: Cytotoxicity against Homo sapiens (human) Raji cells assessed as cell viability after 72 hr by MTT assay
[1] = Cytotoxicity against Homo sapiens (human) LS180 cells assessed as cell viability after 72 hr by MTT assay; conditions: LS180, 72 h
HeLa = experiment: Cytotoxicity against Homo sapiens (human) HeLa cells assessed as cell viability after […] by MTT assay

Structure (SMILES)	IC15 (Raji)	IC30 (Raji)	IC15 [1]	IC30 [1]	IC15 (HeLa)	IC30 (HeLa)
Cc1ccccc1N=C1C(=O)Nc2ccccc21	64.8 µM	> 100 µM	> 100 µM	> 100 µM	12.3 µM	52.6 µM
O=C1Nc2ccccc2/C1=N/Nc1ccc([N+](=O)[O-])cc1	17 µM	> 100 µM	5.2 µM	21.8 µM	3 µM	12.2 µM
O=C1Nc2ccccc2/C1=N\c1ccc(Cl)cc1	35.4 µM	88.1 µM	> 100 µM	> 100 µM	15.4 µM	80.2 µM
O=C1Nc2ccccc2/C1=N/c1cccc2ccccc12	48.8 µM	> 100 µM	20.8 µM	> 100 µM	15.8 µM	55.9 µM
Cc1nc(Cl)cc(/N=C2\C(=O)Nc3ccccc32)n1	> 100 µM	> 100 µM	> 100 µM	> 100 µM	17.4 µM	> 100 µM
O=C1Nc2ccccc2/C1=N/c1ccc(Cl)cn1	> 100 µM	> 100 µM	> 100 µM	> 100 µM	21.6 µM	65.1 µM
O=C1Nc2ccccc2/C1=N/c1nc2ccccc2[nH]1	15.6 µM	> 100 µM	> 100 µM	> 100 µM	43.2 µM	> 100 µM
O=C1Nc2ccccc2/C1=N/c1nc(Cl)cs1	57.3 µM	> 100 µM	> 100 µM	> 100 µM	3.2 µM	35.9 µM
Cc1conc1/N=C1\C(=O)Nc2ccccc21	30.1 µM	> 100 µM	> 100 µM	> 100 µM	49.6 µM	> 100 µM
